# Source: US8759504B2, “Cholinergic/serotoninergic receptor and uses thereof” (AbbVie Inc., priority 2007, dated 2014)
# Like-named read-outs stand apart in the source and are kept apart here.
# Assays:
# Chimera 2 = Chimera 2 (Homo sapiens, UniProt P36544, M226I/T225V); assay: [3H]A-585539 radioligand binding, HEK-293 membranes/homogenates; design: expressed in transfected cells
# Chimera 1 = Chimera 1 (Homo sapiens, UniProt P36544, M226I/T225V); assay: [3H]A-585539 radioligand binding, HEK-293 membranes; design: expressed in transfected cells; settings: membranes of HEK-293 cells expressing Chimera 1; read-out: Radioligand Binding KD ± SEM
# Chain of Chimera 1 (P36544 with tags, fused parts or gaps T225V/M226I): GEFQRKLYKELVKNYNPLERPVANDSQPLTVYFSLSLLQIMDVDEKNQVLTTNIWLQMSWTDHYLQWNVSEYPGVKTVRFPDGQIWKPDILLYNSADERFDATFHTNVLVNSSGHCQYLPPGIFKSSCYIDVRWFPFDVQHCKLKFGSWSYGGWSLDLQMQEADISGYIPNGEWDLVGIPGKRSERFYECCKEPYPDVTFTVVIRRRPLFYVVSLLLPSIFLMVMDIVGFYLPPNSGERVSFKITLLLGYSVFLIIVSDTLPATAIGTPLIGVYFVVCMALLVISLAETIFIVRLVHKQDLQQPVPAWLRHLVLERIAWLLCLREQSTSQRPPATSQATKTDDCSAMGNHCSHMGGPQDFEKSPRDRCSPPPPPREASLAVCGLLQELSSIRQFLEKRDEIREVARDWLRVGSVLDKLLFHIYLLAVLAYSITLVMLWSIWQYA
# Chain of Chimera 2 (P36544 with tags, fused parts or gaps T225V/M226I): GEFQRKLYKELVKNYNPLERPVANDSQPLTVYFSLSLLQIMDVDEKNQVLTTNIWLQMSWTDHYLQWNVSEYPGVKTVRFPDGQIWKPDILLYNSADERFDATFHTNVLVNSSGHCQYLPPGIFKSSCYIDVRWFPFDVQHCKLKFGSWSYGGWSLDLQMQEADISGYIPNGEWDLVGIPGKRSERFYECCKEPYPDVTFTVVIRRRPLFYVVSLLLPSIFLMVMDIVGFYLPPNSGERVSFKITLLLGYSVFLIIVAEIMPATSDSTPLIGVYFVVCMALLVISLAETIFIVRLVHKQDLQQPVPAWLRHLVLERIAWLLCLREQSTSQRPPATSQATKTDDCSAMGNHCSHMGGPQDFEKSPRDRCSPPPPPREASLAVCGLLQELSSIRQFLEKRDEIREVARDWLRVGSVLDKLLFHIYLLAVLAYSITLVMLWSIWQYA
structure (smiles),measurement,setting,value
"C[N+]1(C)C[C@@H]2C[C@H]1CN2c1ccc(-c2ccccc2)nn1.[I-] [[^3H]A585539, [^3H]-(S,S)-2,2-dimethyl-5-(6-phenyl-pyridazin-3-yl)-5-aza-2-azonia-bicyclo[2.2.1]heptane iodide]","Bmax, saturation binding","Chimera 2; 10 μM genistein, 4 μg/well",6058.0±809.3 fmol/mg protein
same,Kd,"Chimera 2; 10 μM genistein, 4 μg/well, read-out: Kd, saturation binding",0.1 ± 0.01 nM
same,"Bmax, saturation binding","Chimera 2; 10 μM genistein, 20 μg/well",7251.0±587.8 fmol/mg protein
same,Kd,"Chimera 2; 10 μM genistein, 20 μg/well, read-out: Kd, saturation binding",0.18 ± 0.01 nM
same,"Bmax, representative saturation binding",Chimera 2; absence of genistein,6014 fmol/mg protein
same,Kd,"Chimera 2; absence of genistein, read-out: Kd, representative saturation binding",0.15 nM
same,Bmax,Chimera 2; homogenates of HEK-293-Chimera 2 cells,29167 fmol/mg protein
same,Kd,"Chimera 2; membranes of HEK-293 cells expressing Chimera 2, read-out: Radioligand Binding KD ± SEM",0.17 nM
same,"Bmax, representative saturation binding",Chimera 2; presence of 10 μM genistein,6528 fmol/mg protein
same,Kd,"Chimera 2; presence of 10 μM genistein, read-out: Kd, representative saturation binding",0.17 nM
same,"Bmax, saturation binding","Chimera 2; without genistein, 4 μg/well",5979.0±530.3 fmol/mg protein
same,Kd,"Chimera 2; without genistein, 4 μg/well, read-out: Kd, saturation binding",0.11 ± 0.01 nM
same,"Bmax, saturation binding","Chimera 2; without genistein, 20 μg/well",7016.0±798.2 fmol/mg protein
same,Kd,"Chimera 2; without genistein, 20 μg/well, read-out: Kd, saturation binding",0.17 ± 0.02 nM
same,Kd,Chimera 1,0.65 nM
